The results in this text go back to patent US8471005B2 (Cephalon, Inc., priority 2008, dated 2013).

For one assay, the target named is T1, ALK (Homo sapiens, UniProt Q9UM73).
T1 construct: host or cells: baculovirus expression system
The assay can be described thus: ALK Kinase Assay (ELISA/TRF, PLC-γ substrate). The class given is biochemical. As to conditions: read-out: ALK Potency. In outline: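 First, plates are coated with substrate (phospholipase C-γ, 10 μg/mL, TBS). Next, 30 ng/ml ALK initiates phosphorylation for 15 min at 37° C. Then Eu-N1 PT66 antibody is added for detection, and a nonlinear dose-response fit of percent inhibition yields IC50.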

For a further assay, the target named is T2, JAK2 (Homo sapiens, UniProt O60674).
T2 construct: host or cells: baculovirus expression system
The experiment in a line: Recombinant Human JAK2 Kinase Assay (TRF). The class given is biochemical. The following applies: read-out: JAK2 Potency. In a few lines: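 Baculovirus-expressed JAK2 (15 ng/ml) phosphorylated a biotinylated 15-mer peptide captured on Neutravidin-coated plates, in 20 mM HEPES pH 7.2 with 0.2 μM ATP, 1 mM MnCl2, 0.1% BSA and 2.5% DMSO. Reaction ran 20 min at room temperature; phosphopeptide was detected by time-resolved fluorescence with Eu-N1-labelled PY100 antibody.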

Setting [1] is: ALK kinase inhibition, 1 μM ATP.
The mark [2] stands for this setting: JAK2 kinase inhibition, 0.2 μM ATP.

Like-named read-outs stand apart in the source and are kept apart here.

T2 sequence (O60674 whole entry): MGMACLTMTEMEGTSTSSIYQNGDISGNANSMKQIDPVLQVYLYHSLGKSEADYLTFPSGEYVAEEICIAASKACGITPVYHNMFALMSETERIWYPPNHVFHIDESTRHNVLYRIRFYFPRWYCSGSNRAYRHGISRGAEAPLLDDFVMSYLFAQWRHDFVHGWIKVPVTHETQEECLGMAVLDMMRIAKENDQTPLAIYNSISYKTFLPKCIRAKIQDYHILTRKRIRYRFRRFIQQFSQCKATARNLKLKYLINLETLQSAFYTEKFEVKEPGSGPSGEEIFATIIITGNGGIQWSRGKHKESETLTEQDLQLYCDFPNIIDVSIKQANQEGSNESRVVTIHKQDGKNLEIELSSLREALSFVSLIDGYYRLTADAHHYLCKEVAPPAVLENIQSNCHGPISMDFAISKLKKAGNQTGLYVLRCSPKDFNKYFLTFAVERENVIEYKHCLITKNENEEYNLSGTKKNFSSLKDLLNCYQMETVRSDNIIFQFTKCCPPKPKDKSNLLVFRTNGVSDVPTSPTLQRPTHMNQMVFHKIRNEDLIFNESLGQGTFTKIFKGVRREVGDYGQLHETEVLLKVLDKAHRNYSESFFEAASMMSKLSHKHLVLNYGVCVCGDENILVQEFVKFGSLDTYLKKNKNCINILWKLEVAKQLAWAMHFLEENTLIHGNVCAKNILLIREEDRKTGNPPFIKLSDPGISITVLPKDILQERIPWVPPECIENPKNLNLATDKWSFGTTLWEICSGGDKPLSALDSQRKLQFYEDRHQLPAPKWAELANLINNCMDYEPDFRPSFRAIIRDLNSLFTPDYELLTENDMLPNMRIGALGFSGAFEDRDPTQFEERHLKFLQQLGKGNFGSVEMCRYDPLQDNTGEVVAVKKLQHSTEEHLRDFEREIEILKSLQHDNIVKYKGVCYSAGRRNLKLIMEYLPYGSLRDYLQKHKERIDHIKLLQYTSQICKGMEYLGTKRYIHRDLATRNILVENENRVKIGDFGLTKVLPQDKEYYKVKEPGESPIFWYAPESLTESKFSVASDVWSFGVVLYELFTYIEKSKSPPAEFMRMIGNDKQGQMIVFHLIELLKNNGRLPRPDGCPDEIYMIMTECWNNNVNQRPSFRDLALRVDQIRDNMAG
T1 sequence (Q9UM73 19-1620): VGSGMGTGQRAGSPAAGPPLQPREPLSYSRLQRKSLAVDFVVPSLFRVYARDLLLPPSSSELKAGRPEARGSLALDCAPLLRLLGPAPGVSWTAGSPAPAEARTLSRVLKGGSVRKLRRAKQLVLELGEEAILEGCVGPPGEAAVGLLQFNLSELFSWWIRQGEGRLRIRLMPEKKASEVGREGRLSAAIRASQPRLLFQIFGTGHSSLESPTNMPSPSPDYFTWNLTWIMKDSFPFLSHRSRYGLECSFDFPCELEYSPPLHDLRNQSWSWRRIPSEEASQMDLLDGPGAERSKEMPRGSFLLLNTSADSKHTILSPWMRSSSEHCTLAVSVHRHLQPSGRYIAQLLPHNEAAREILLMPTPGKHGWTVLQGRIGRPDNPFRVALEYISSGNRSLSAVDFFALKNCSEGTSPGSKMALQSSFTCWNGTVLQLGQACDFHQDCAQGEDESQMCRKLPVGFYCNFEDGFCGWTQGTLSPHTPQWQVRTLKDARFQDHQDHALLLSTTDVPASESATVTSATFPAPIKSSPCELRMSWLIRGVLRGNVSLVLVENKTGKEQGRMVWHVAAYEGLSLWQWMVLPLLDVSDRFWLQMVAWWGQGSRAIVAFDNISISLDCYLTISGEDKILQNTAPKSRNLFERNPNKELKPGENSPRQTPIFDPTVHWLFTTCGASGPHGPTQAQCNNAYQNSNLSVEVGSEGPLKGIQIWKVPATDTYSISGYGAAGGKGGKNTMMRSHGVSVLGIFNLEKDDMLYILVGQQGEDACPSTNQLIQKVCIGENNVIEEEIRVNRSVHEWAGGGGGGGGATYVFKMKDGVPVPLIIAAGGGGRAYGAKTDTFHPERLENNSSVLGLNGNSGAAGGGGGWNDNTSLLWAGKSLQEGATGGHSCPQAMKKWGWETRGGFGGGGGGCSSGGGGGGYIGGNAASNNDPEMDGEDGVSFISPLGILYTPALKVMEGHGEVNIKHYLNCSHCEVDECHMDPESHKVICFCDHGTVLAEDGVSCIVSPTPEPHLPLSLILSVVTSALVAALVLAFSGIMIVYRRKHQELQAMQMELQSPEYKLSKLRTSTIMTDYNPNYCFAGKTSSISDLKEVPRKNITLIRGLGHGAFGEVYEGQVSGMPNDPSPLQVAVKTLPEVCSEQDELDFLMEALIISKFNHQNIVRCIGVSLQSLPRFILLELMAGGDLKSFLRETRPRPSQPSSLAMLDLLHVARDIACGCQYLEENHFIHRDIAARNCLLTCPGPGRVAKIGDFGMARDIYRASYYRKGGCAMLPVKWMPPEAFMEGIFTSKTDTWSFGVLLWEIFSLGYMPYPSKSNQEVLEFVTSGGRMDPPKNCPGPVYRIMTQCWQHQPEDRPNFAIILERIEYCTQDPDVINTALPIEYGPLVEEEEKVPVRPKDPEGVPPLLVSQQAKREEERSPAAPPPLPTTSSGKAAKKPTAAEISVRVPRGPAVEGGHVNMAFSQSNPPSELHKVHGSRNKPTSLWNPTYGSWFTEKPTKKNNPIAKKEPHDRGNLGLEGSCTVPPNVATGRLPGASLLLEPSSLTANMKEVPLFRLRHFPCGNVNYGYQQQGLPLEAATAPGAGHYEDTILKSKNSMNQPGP

For the molecule `Cn1cc(-c2ccc3cnc(Nc4ccc(N5CCOCC5)cc4)nn23)cn1` [Example 10, [7-(1-Methyl-1H-pyrazol-4-yl)-pyrrolo[2,1-f][1,2,4]triazin-2-yl]-(4-morpholin-4-yl-phenyl)-amine], the IC50 is 1 to 10 µM at ALK (ALK Kinase Inhibition) and below 0.1 µM on JAK2 (JAK2 Kinase Inhibition).
Consider `CN1CCC(c2ccc(Nc3ncc4ccc(-c5cnn(CCC#N)c5)n4n3)cc2)CC1` [Example 932, 3-(4-{2-[4-(1-Methyl-piperidin-4-yl)-phenylamino]-pyrrolo[2,1-f][1,2,4]triazin-7-yl}-pyrazol-1-yl)-propionitrile], for which the IC50 was 0.1 to 1 µM on ALK (setting [1]) and below 0.1 µM at JAK2 (setting [2]).
The matching figures for `CCN1CCCC(CC)(c2ccc(Nc3ncc4ccc(-c5ccccc5N(C)S(C)(=O)=O)n4n3)cc2)C1` (racemic) [Example 778, (±)-N-(2-{2-[4-(1,3-Diethyl-piperidin-3-yl)-phenylamino]-pyrrolo[2,1-f][1,2,4]triazin-7-yl}-phenyl)-N-methyl-methanesulfonamide]: below 0.1 µM and below 0.1 µM.
On to `COc1ccc(OC)c(-c2ccc3cnc(Nc4ccc(N5CCN(C[C@H](C)O)CC5)cc4OC)nn23)c1` [Example 1477, (S)-1-(4-{4-[7-(2,5-Dimethoxy-phenyl)-pyrrolo[2,1-f][1,2,4]triazin-2-ylamino]-3-methoxy-phenyl}-piperazin-1-yl)-propan-2-ol], for which the results for the IC50 on ALK (ALK Kinase Inhibition) and on JAK2 (JAK2 Kinase Inhibition) were below 0.1 µM and 1 to 10 µM, respectively.
The matching figures for `CS(=O)(=O)Nc1ccccc1-c1ccc2cnc(Nc3ccc(N4CCOCC4)cc3)nn12` [Example 428, N-{2-[2-(4-Morpholin-4-yl-phenylamino)-pyrrolo[2,1-f][1,2,4]triazin-7-yl]-phenyl}-methanesulfonamide]: 1 to 10 µM and below 0.1 µM.
For `COc1ccc(-c2ccc3cnc(Nc4ccc(C5CC6CCC(C5)N6C)cc4)nn23)cn1` (stereo not shown) [Example 944, [7-(6-Methoxy-pyridin-3-yl)-pyrrolo[2,1-f][1,2,4]triazin-2-yl]-[4-(8-methyl-8-aza-bicyclo[3.2.1]oct-3-yl)-phenyl]-amine], the IC50 on ALK (setting [1]) is 0.1 to 1 µM; on JAK2 (setting [2]), below 0.1 µM.
With `COc1cc(C2CCN(C[C@@H](C)O)CC2)ccc1Nc1ncc2ccc(-c3ccccc3N(C)S(C)(=O)=O)n2n1` [Example 788, N-[2-(2-{4-[1-((R)-2-Hydroxy-propyl)-piperidin-4-yl]-2-methoxy-phenylamino}-pyrrolo[2,1-f][1,2,4]triazin-7-yl)-phenyl]-N-methyl-methanesulfonamide], the IC50 at ALK (setting [1]) was below 0.1 µM; on JAK2 (setting [2]), 0.1 to 1 µM.
As for `CC(=O)Nc1cc(Nc2ncc3ccc(-c4cnn(C)c4)n3n2)ccc1C(C)(C)C` [Example 1380, N-{2-tert-Butyl-5-[7-(1-methyl-1H-pyrazol-4-yl)-pyrrolo[2,1-f][1,2,4]triazin-2-ylamino]-phenyl}-acetamide], the IC50 on ALK (ALK Kinase Inhibition) was 1 to 10 µM; on JAK2 (JAK2 Kinase Inhibition), below 0.1 µM.
Take `COc1ccccc1-c1ccc2cnc(Nc3ccc(N4CCC(N5CCN(C)CC5)CC4)cc3)nn12` [Example 310, [7-(2-Methoxy-phenyl)-pyrrolo[2,1-f][1,2,4]triazin-2-yl]-{4-[4-(4-methyl-piperazin-1-yl)-piperidin-1-yl]-phenyl}-amine]: the IC50 at ALK (ALK Kinase Inhibition) and at JAK2 (JAK2 Kinase Inhibition) was below 0.1 µM throughout.
Consider `O=C(NCCCN1CCOCC1)c1ccc(-c2ccc3cnc(Nc4ccc(N5CCOCC5)cc4)nn23)cc1` [Example 57, 4-[2-(4-Morpholin-4-yl-phenylamino)-pyrrolo[2,1-f][1,2,4]triazin-7-yl]-N-(3-morpholin-4-yl-propyl)-benzamide], for which the figures for the IC50 at ALK (ALK Kinase Inhibition) and at JAK2 (JAK2 Kinase Inhibition) were 1 to 10 µM and below 0.1 µM, respectively.
For the molecule `CN1CCCC1COc1cc(Nc2ncc3ccc(-c4cccc(S(=O)(=O)NC(C)(C)C)c4)n3n2)ccc1Cl` (stereo not shown) [Example 1009, N-tert-Butyl-3-{2-[4-chloro-3-(1-methyl-pyrrolidin-2-ylmethoxy)-phenylamino]-pyrrolo[2,1-f][1,2,4]triazin-7-yl}-benzenesulfonamide], the IC50 at ALK (setting [1]) was 0.1 to 1 µM; at JAK2 (setting [2]), below 0.1 µM.
Regarding `C[C@@H](O)CN1CCN(c2ccc(Nc3ncc4ccc(-c5ccc(S(C)(=O)=O)cc5)n4n3)cc2)CC1` [Example 209, (R)-1-(4-{4-[7-(4-Methanesulfonyl-phenyl)-pyrrolo[2,1-f][1,2,4]triazin-2-ylamino]-phenyl}-piperazin-1-yl)-propan-2-ol], the IC50 on ALK (ALK Kinase Inhibition) is 0.1 to 1 µM; at JAK2 (JAK2 Kinase Inhibition), below 0.1 µM.
With `COc1ccccc1-c1ccc2cnc(Nc3ccc4ncccc4c3)nn12` [Example 172, [7-(2-Methoxy-phenyl)-pyrrolo[2,1-f][1,2,4]triazin-2-yl]-quinolin-6-yl-amine], the IC50 on ALK (ALK Kinase Inhibition) is 1 to 10 µM; on JAK2 (JAK2 Kinase Inhibition), below 0.1 µM.
`CN(c1ccccc1-c1ccc2cnc(Nc3cccc(N4CCOCC4)c3)nn12)S(C)(=O)=O` [Example 410, N-Methyl-N-{2-[2-(3-morpholin-4-yl-phenylamino)-pyrrolo[2,1-f][1,2,4]triazin-7-yl]-phenyl}-methanesulfonamide]: the figures for the IC50 on ALK (ALK Kinase Inhibition) and at JAK2 (JAK2 Kinase Inhibition) were 0.1 to 1 µM and below 0.1 µM, respectively.
Taken in the same sequence, the figures for `NC(=O)CN1CCC(c2ccc(Nc3ncc4ccc(-c5cnccn5)n4n3)cc2)CC1` [Example 1564, 2-{4-[4-(7-Pyrazin-2-yl-pyrrolo[2,1-f][1,2,4]triazin-2-ylamino)-phenyl]-piperidin-1-yl}-acetamide] were 1 to 10 µM and below 0.1 µM.
For the molecule `COc1cc(N2CCC(N3CCOCC3)C2)ccc1Nc1ncc2ccc(-c3ccccc3OC)n2n1` (racemic) [Example 779, (±)-[2-Methoxy-4-(3-morpholin-4-yl-pyrrolidin-1-yl)-phenyl]-[7-(2-methoxyphenyl)-pyrrolo[2,1-f][1,2,4]triazin-2-yl]-amine], the IC50 on ALK (setting [1]) and on JAK2 (setting [2]) was 0.1 to 1 µM in each case.
On to `COCCN(c1ccccc1-c1ccc2cnc(Nc3ccc(N4CCC(N5CCOCC5)CC4)cc3OC)nn12)S(C)(=O)=O` [Example 1462, N-(2-Methoxy-ethyl)-N-(2-{2-[2-methoxy-4-(4-morpholin-4-yl-piperidin-1-yl)-phenylamino]-pyrrolo[2,1-f][1,2,4]triazin-7-yl}-phenyl)-methanesulfonamide], for which the IC50 at ALK (ALK Kinase Inhibition) and at JAK2 (JAK2 Kinase Inhibition) was 0.1 to 1 µM each time.
As to `Cc1ccncc1-c1ccc2cnc(Nc3ccc(N4CCOCC4)cc3)nn12` [Example 1038, [7-(4-Methyl-pyridin-3-yl)-pyrrolo[2,1-f][1,2,4]triazin-2-yl]-(4-morpholin-4-yl-phenyl)-amine], the IC50 is 1 to 10 µM at ALK (setting [1]) and below 0.1 µM at JAK2 (setting [2]).
Turning to `COc1ccc(Cl)cc1-c1ccc2cnc(Nc3cccc(N4CCN(C[C@H](C)O)CC4)c3)nn12` [Example 211, (S)-1-(4-{3-[7-(5-Chloro-2-methoxy-phenyl)-pyrrolo[2,1-f][1,2,4]triazin-2-ylamino]-phenyl}-piperazin-1-yl)-propan-2-ol], the IC50 on ALK (ALK Kinase Inhibition) and on JAK2 (JAK2 Kinase Inhibition) was below 0.1 µM each time.
Regarding `COc1cc(N2CCC(N(C)C)CC2)ccc1Nc1ncc2ccc(-c3ccc(S(C)(=O)=O)cc3)n2n1` [Example 477, [4-(4-Dimethylamino-piperidin-1-yl)-2-methoxy-phenyl]-[7-(4-methanesulfonyl-phenyl)-pyrrolo[2,1-f][1,2,4]triazin-2-yl]-amine], the IC50 on ALK (setting [1]) and at JAK2 (setting [2]) was below 0.1 µM in each case.
